This is an account of results in ChEMBL document CHEMBL1926619, “Structure and in vitro antiparasitic activity of constituents of Citropsis articulata root bark” (J Nat Prod, 2011).

Structures are written as SMILES. Converted amounts (≈) assume the structure as drawn.

The first data set relates to Vero. The experiment in a line: Cytotoxicity against african green monkey Vero cells. Format: ADME, cell-based. Particulars: Chlorocebus sabaeus.
`COc1cc2c(c(O)c1OC)c(=O)c1cccc(O)c1n2C` gave an IC50 of 30.5 µg/mL (≈ 101 µM).

Compound `CC(=O)O[C@@H]1C[C@H]2C(C)(C)OC(=O)C=C[C@]2(C)[C@H]2CC[C@@]3(C)[C@H](c4ccoc4)OC(=O)[C@H]4O[C@]43[C@@]21C` came in with an IC50 of more than 50 µg/mL.

Take `Cn1c2c(O)cccc2c(=O)c2c(O)cc3c(c21)C=CC(C)(C)O3`: 9.3 µg/mL (≈ 28.8 µM) corresponded to half-maximal inhibition (IC50).

With `CC[C@@]1(O)C(=O)OCc2c1cc1n(c2=O)Cc2cc3ccccc3nc2-1` [CAMPTOTHECIN], inhibition was half-maximal at 0.6 µg/mL (≈ 1.72 µM) (IC50).

`CC(C)=CCc1cc2ccc(=O)oc2cc1O` [DEMETHYLSUBEROSIN] displayed an IC50 of more than 50 µg/mL.

With `COc1cc2ccc(=O)oc2cc1O[C@@H]1O[C@H](CO[C@@H]2O[C@@H](C)[C@H](O)[C@@H](O)[C@H]2O)[C@@H](O)[C@H](O)[C@H]1O` [HAPLOPEROSIDE], the IC50 was more than 50 µg/mL.

In turn, `C[C@@H]1O[C@@H](O[C@H]2[C@H](Oc3cc(=O)n(C)c4ccccc34)O[C@H](CO)[C@@H](O)[C@@H]2O)[C@H](O)[C@H](O)[C@H]1O` [KATIMBORINE] came in with an IC50 of more than 50 µg/mL.

As to `CC1(C)C=Cc2c(ccc(CCC(=O)O)c2O[C@@H]2O[C@H](CO[C@@H]3O[C@H](CO)[C@@H](O)[C@H](O)[C@H]3O)[C@@H](O)[C@H](O)[C@H]2O)O1` [OMUBIOSIDE], the IC50 is more than 50 µg/mL.

In turn, `CC1(C)C=Cc2c(ccc3ccc(=O)oc23)O1` [SESALIN] returned an IC50 of more than 50 µg/mL.

Turning to `COc1cc2oc(=O)ccc2cc1CC=C(C)C` [SUBEROSIN], the IC50 is more than 50 µg/mL.

With `C[n+]1cccc(C(=O)[O-])c1.Cl` [TRIGONELLINE HYDROCHLORIDE], the IC50 was more than 50 µg/mL.

For the next data set, the system named is Leishmania donovani. The data set can be described thus: Antileishmanial activity against Leishmania donovani MHOM/ET/L82/LV9 promastigotes after 3 days by MTT assay. It counts as functional, organism-based. Particulars: MHOM/ET/L82/LV9, 72 h. (In general: Tetrazolium dyes change colour on reduction, which living cells bring about.)
For the compound `COc1cc2c(c(O)c1OC)c(=O)c1cccc(O)c1n2C`, the EC50 is 20.4 µg/mL (≈ 67.7 µM).

With `CC(=O)O[C@@H]1C[C@H]2C(C)(C)OC(=O)C=C[C@]2(C)[C@H]2CC[C@@]3(C)[C@H](c4ccoc4)OC(=O)[C@H]4O[C@]43[C@@]21C`, the EC50 worked out at 45 µg/mL (≈ 90.3 µM).

On to `Cn1c2c(O)cccc2c(=O)c2c(O)cc3c(c21)C=CC(C)(C)O3`, for which the EC50 stood at 11.2 µg/mL (≈ 34.6 µM).

`CC(C)=CCc1cc2ccc(=O)oc2cc1O` [DEMETHYLSUBEROSIN] gave a 50% effective concentration (EC50) of 120 µg/mL (≈ 521 µM).

As to `COc1cc2ccc(=O)oc2cc1O[C@@H]1O[C@H](CO[C@@H]2O[C@@H](C)[C@H](O)[C@@H](O)[C@H]2O)[C@@H](O)[C@H](O)[C@H]1O` [HAPLOPEROSIDE], the EC50 is more than 125 µg/mL.

Regarding `C[C@@H]1O[C@@H](O[C@H]2[C@H](Oc3cc(=O)n(C)c4ccccc34)O[C@H](CO)[C@@H](O)[C@@H]2O)[C@H](O)[C@H](O)[C@H]1O` [KATIMBORINE], the EC50 was more than 125 µg/mL.

`CC1(C)C=Cc2c(ccc(CCC(=O)O)c2O[C@@H]2O[C@H](CO[C@@H]3O[C@H](CO)[C@@H](O)[C@H](O)[C@H]3O)[C@@H](O)[C@H](O)[C@H]2O)O1` [OMUBIOSIDE] yielded an EC50 of more than 125 µg/mL.

Regarding `N=C(N)c1ccc(OCCCCCOc2ccc(C(=N)N)cc2)cc1` [PENTAMIDINE], the response was half-maximal at 3.1 µg/mL (≈ 9.11 µM) (EC50).

`CC1(C)C=Cc2c(ccc3ccc(=O)oc23)O1` [SESALIN] registered an EC50 of more than 125 µg/mL.

Compound `COc1cc2oc(=O)ccc2cc1CC=C(C)C` [SUBEROSIN] came in with an EC50 of more than 125 µg/mL.

For `C[n+]1cccc(C(=O)[O-])c1.Cl` [TRIGONELLINE HYDROCHLORIDE], the EC50 is more than 125 µg/mL.

Test system in another data set: not listed separately
The data set can be described thus: Selectivity index, ratio of IC50 for african green monkey Vero cells to IC50 for chloroquine-resistant Plasmodium falciparum FcB1/Colombia. Format: toxicity, cell-based. The conditions noted are these: read-out: Ratio IC50.
Turning to `COc1cc2c(c(O)c1OC)c(=O)c1cccc(O)c1n2C`, the selectivity ratio is 10.

As for `Cn1c2c(O)cccc2c(=O)c2c(O)cc3c(c21)C=CC(C)(C)O3`, the selectivity ratio was 10.

In another data set the test system is Plasmodium falciparum. The data set can be described thus: microbe, parasite or virus in culture. The conditions noted are these: FcB1/Columbia. Format: functional, organism-based.
Description: Antiplasmodial activity against chloroquine-resistant Plasmodium falciparum FcB1/Colombia infected in human A+ve erythrocytes assessed as inhibition of [G-3H]hypoxanthine uptake preincubated for 24 hrs prior to [G-3H]hypoxanthine addition measured after 18 hrs by liquid scintillation counting
`COc1cc2c(c(O)c1OC)c(=O)c1cccc(O)c1n2C`: the IC50 turned out to be 3 µg/mL (≈ 9.96 µM).

`CC(=O)O[C@@H]1C[C@H]2C(C)(C)OC(=O)C=C[C@]2(C)[C@H]2CC[C@@]3(C)[C@H](c4ccoc4)OC(=O)[C@H]4O[C@]43[C@@]21C` gave an IC50 of 9.3 µg/mL (≈ 18.7 µM).

The compound `Cn1c2c(O)cccc2c(=O)c2c(O)cc3c(c21)C=CC(C)(C)O3` gave an IC50 of 0.9 µg/mL (≈ 2.78 µM).

The compound `CC(C)=CCc1cc2ccc(=O)oc2cc1O` [DEMETHYLSUBEROSIN] had an IC50 of 16.7 µg/mL (≈ 72.5 µM).

As for `COc1cc2ccc(=O)oc2cc1O[C@@H]1O[C@H](CO[C@@H]2O[C@@H](C)[C@H](O)[C@@H](O)[C@H]2O)[C@@H](O)[C@H](O)[C@H]1O` [HAPLOPEROSIDE], the IC50 was more than 100 µg/mL.

The compound `C[C@@H]1O[C@@H](O[C@H]2[C@H](Oc3cc(=O)n(C)c4ccccc34)O[C@H](CO)[C@@H](O)[C@@H]2O)[C@H](O)[C@H](O)[C@H]1O` [KATIMBORINE] came in with an IC50 of more than 100 µg/mL.

For `CC1(C)C=Cc2c(ccc(CCC(=O)O)c2O[C@@H]2O[C@H](CO[C@@H]3O[C@H](CO)[C@@H](O)[C@H](O)[C@H]3O)[C@@H](O)[C@H](O)[C@H]2O)O1` [OMUBIOSIDE], the IC50 is more than 100 µg/mL.

For `CC1(C)C=Cc2c(ccc3ccc(=O)oc23)O1` [SESALIN], the IC50 was more than 100 µg/mL.

With `COc1cc2oc(=O)ccc2cc1CC=C(C)C` [SUBEROSIN], the IC50 is more than 100 µg/mL.

`C[n+]1cccc(C(=O)[O-])c1.Cl` [TRIGONELLINE HYDROCHLORIDE] returned an IC50 of more than 100 µg/mL.

For another data set, the system named is Trypanosoma brucei brucei. The experiment in a line: Antitrypanosomal activity against Trypanosoma brucei brucei. It counts as functional, organism-based.
Details: not given
Turning to `COc1cc2c(c(O)c1OC)c(=O)c1cccc(O)c1n2C`, the EC50 was 125 µg/mL (≈ 415 µM).

`CC(=O)O[C@@H]1C[C@H]2C(C)(C)OC(=O)C=C[C@]2(C)[C@H]2CC[C@@]3(C)[C@H](c4ccoc4)OC(=O)[C@H]4O[C@]43[C@@]21C` came in with an EC50 of more than 125 µg/mL.

Take `Cn1c2c(O)cccc2c(=O)c2c(O)cc3c(c21)C=CC(C)(C)O3`: a half-maximal response (EC50) required 125 µg/mL (≈ 387 µM).

Turning to `NCCS[As](SCCN)c1ccc(Nc2nc(N)nc(N)n2)cc1` [CYMELARSEN], the EC50 was determined as 1 µg/mL.

Take `CC(C)=CCc1cc2ccc(=O)oc2cc1O` [DEMETHYLSUBEROSIN]: the EC50 is more than 125 µg/mL.

Take `COc1cc2ccc(=O)oc2cc1O[C@@H]1O[C@H](CO[C@@H]2O[C@@H](C)[C@H](O)[C@@H](O)[C@H]2O)[C@@H](O)[C@H](O)[C@H]1O` [HAPLOPEROSIDE]: the EC50 is more than 125 µg/mL.

Take `C[C@@H]1O[C@@H](O[C@H]2[C@H](Oc3cc(=O)n(C)c4ccccc34)O[C@H](CO)[C@@H](O)[C@@H]2O)[C@H](O)[C@H](O)[C@H]1O` [KATIMBORINE]: the concentration giving a half-maximal response (EC50) was more than 125 µg/mL.

Compound `CC1(C)C=Cc2c(ccc(CCC(=O)O)c2O[C@@H]2O[C@H](CO[C@@H]3O[C@H](CO)[C@@H](O)[C@H](O)[C@H]3O)[C@@H](O)[C@H](O)[C@H]2O)O1` [OMUBIOSIDE] yielded an EC50 of more than 125 µg/mL.

With `N=C(N)c1ccc(OCCCCCOc2ccc(C(=N)N)cc2)cc1` [PENTAMIDINE], the EC50 was found to be 1.4 µg/mL (≈ 4.11 µM).

For `CC1(C)C=Cc2c(ccc3ccc(=O)oc23)O1` [SESALIN], the EC50 is more than 125 µg/mL.

`COc1cc2oc(=O)ccc2cc1CC=C(C)C` [SUBEROSIN] registered an EC50 of more than 125 µg/mL.

Compound `C[n+]1cccc(C(=O)[O-])c1.Cl` [TRIGONELLINE HYDROCHLORIDE] gave an EC50 of more than 125 µg/mL.

For orientation: IC50 means the point on the concentration scale where inhibition reaches its midpoint. As usually defined, the EC50 is the concentration that produces a half-maximal response.
